The results in this text go back to patent publication US5622969A, “Method of treating leukotriene caused diseases with N-benzyl dihydroindole LTD4 antagonists” (Eli Lilly and Company, priority 1995, dated 1997).

The target of assay [1] is T1, LTD4 receptor (guinea pig lung membrane) (Cavia porcellus, UniProt Q2NNR5).
T1 construct: guinea-pig lung membrane preparation; from tissue; host or cells: guinea pig lung membranes
T1 sequence (Q2NNR5 1-340): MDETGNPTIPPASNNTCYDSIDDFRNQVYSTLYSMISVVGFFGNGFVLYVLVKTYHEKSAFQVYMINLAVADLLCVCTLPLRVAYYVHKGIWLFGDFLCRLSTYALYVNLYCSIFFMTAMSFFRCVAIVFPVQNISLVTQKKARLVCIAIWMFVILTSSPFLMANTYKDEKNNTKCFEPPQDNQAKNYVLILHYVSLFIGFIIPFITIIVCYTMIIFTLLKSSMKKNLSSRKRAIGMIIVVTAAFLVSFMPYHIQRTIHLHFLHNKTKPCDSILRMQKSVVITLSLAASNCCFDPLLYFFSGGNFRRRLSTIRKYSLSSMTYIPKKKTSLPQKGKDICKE
Kind of assay: Assay 3 - Guinea Pig Lung Membrane [3H] LTD4 Radioligand Binding (GPLM binding). Particulars: [3H] LTD4, guinea pig lung membrane, 30 min, 30° C., pH 6.5; for Ki: read-out: GPLM binding (pKi) (converted). On the procedure: Assay 3--Guinea Pig Lung Membrane [^3 H] LTD4 Radioligand Binding: [^3 H] LTD4 was purchased from New England Nuclear (Boston, Mass.). All other chemicals were purchased from Sigma (St. Louis, Mo.). Incubations were performed in silanised glass tubes and contained 30 mg of guinea-pig lung membrane preparation (Saussy, et al., Mol. […] The binding reaction was terminated after 30 min. at 30° C. by the addition of 4 ml ice cold wash buffer (25 mM Tris --HCl, pH 7.5), followed immediately by vacuum filtration over Whatman (GF/C glass fibre filters, using a Brandel (Gaithersburg, Md.) 48 place harvester. The tubes and filter were washed 3×4 ml in cold wash buffer. Retained radioactivity was determined by liquid scintillation counting at 50% counting efficiency using Ready Protein Plus cocktail (Beckman, Fullerton, Calif.). Data were analyzed using linear regression analysis of log-logit plots of the values between 10% and 90% of control biding to calculate I[…] and slope factors (pseudo-Hill coefficients). IC50 values were corrected for radioligand concentrations (Cheng and Prusoff, Biochem. Pharmacol. 22:3099-3108, 1973) to calculate Ki values.

Assay [2] addresses T2, LTD4 receptor (intestinal smooth muscle receptors, guinea pig ileum) (Cavia porcellus, UniProt Q2NNR5).
T2 construct: Terminal ilea were removed from the animals; from tissue; host or cells: guinea pig terminal ileum segments
T2 sequence (Q2NNR5 1-340): T1 sequence (Q2NNR5 1-340)
In words: Assay 2 - Guinea Pig Ileum, antagonism of LTD4 contraction. The note with it: drug added 30 minutes prior, read-out: GP ileum (pKb) (converted). On the procedure:
Assay 2--Guinea Pig Ileum:
Guinea pig ileum was used to determine the potency of novel LTD4 receptor antagonists on intestinal smooth muscle receptors. Terminal ilea were removed from the animals exsanguinated after CO2 asphyxiation and cut into smaller segments of approximately 2 to 3 cm. Tissues were placed in organ baths containing Krebs'bicarbonate solution prepared without indomethacin and 1-cysteine and aerated with 95% O2 and 5% CO2. After a 60 minute equilibration period, 3 submaximal contractions to histamine (3×10^-6 M) were obtained on all tissues. A cumulative concentration-response curve to LTD4 was then generated using the method of Van Rossum (Arch. Int. Pharmacodyn. Ther. 143:299, 1963). Agonist was washed from the baths and the tissues permitted to recover. After a second LTD4 concentration-response curve was produced, the ilea were washed once again and permitted to re-equilibrate. Experimental drug was added to the baths 30 minutes prior to a final LTD4 concentration-response curve.
(§1) The contractions of trachea and ilea to LTD4 in the presence of the drug was compared to responses in the absence of drug. KB values were calculated by the method of Furchgott (Ann. N.Y. Acad. Sci., 139:553, 1967) using the following equation: KB =[Antagonist]/Dose-Ratio-1.

For assay [3], the target named is T3, leukotriene receptor (guinea pig trachea) (Cavia porcellus, UniProt Q2NNR5).
T3 construct: Trachea were cut into ring segments and the epithelium removed; from tissue; host or cells: guinea pig tracheal rings, epithelium removed (male Hartley)
T3 sequence (Q2NNR5 1-340): T1 sequence (Q2NNR5 1-340)
Kind of assay: Assay 1 - Guinea Pig Tracheae, leukotriene receptor antagonism (LTD4 contraction). The note with it: antagonist added 45 minutes prior, read-out: GP trach (pKb) (converted). On the procedure: Assay 1--Guinea Pig Tracheae
Leukotriene receptor antagonism was evaluated in isolated smooth muscles by the following procedure:
Male Hartley guinea pigs weighing 250-400 grams were asphyxiated with CO2 and exsanguinated. Trachea were excised and placed in Krebs'-bicarbonate solution of the following composition in mM/liter: NaCl, 118.2; NaHCO3, 24.8; KCl, 4.6; KH2 PO4, 1.2, MgSO4.7H2 O, 1.2; dextrose, 10.0; CaCl2.2H2 O, 2.5; 1-cysteine, 3.0, and indomethacin, 3 μM. Trachea were cut into ring segments and the epithelium removed by gently rubbing the luminal surface with a cotton swab. Tracheal rings were placed on supports constructed from two 1 inch 30 gauge disposable stainless steel hypodermic needles (Hooker, et al., 1977, Blood Vessels 14:1-11), and transferred to organ baths containing Krebs' solution maintained at 37° C. and aerated with 95% O2 and 5% CO2. Isometric measurements were made with a Grass FTO3C force-displacement transducer and recorded on a Grass polygraph as changes in grams of force. After approximately 60 minutes of equilibration, a single submaximal concentration of LTD4 (3×10^-8 M) was used to contract the trachea. Two LTD4 concentration-response curves were then generated using the cumulative response technique of Van Rossum (1963). A potential leukotriene receptor antagonist was added to the tissue bath 45 minutes prior to generation of the second LTD4 concentration-response curve.
as §1

As to `Clc1ccc2ccc(/C=C/c3ccc(CN4CCc5cccc(CCc6nnn[nH]6)c54)cc3)nc2c1` [Example 11, 5-[2-[1-[4-[2-E-(7-Chloroquinolin-2-yl)ethenyl]benzyl]-2,3-dihydroindol-7-yl]-ethyl]-1H-tetrazole], the Ki in assay [1] is 2.34 nM.

Turning to `c1cc(CN2CCc3cccc(CCc4nnn[nH]4)c32)cc(OCc2ccc3ccccc3n2)c1` [Example 7, 5-[2-[1-[3-(Quinolin-2-ylmethoxy)benzyl]-2,3-dihydroindol-7-yl]-ethyl]-1H-tetrazole], the Kb in assay [2] was 11.2 nM; in assay [3] it was 15.8 nM. Moreover, the “GPLM binding (pKi)” value in assay [1] came out at 7.3.

Consider `Clc1ccc2ccc(COc3ccc(CN4CCc5cccc(CCc6nnn[nH]6)c54)cc3)nc2c1` [Example 6, 5-[2-[1-[4-(7-Chloroquinolin-2-ylmethoxy)benzyl]-2,3-dihydroindol-7-yl]-ethyl]-1H-tetrazole], for which the Kb in assay [2] was 3.24 nM; in assay [3] it was 25.7 nM. For the same molecule, in assay [1], the “GPLM binding (pKi)” value came out at 7.6.

With `Clc1ccc2ccc(/C=C/c3cccc(CN4CCc5cccc(OCc6nn[nH]n6)c54)c3)nc2c1` [Example 10, 5-[1-[3-[2-E-(7-Chloroquinolin-2-yl)ethenyl]benzyl]-2,3-dihydroindol-7-yloxymethyl]-1H-tetrazole], in assay [1], the Ki is 2.45 nM.

As to `Clc1ccc2ccc(/C=C/c3cccc(CN4CCc5cccc(CCc6nnn[nH]6)c54)c3)nc2c1` [Example 4, 5-[2-[1-[3-[2-E-(7-Chloroquinolin-2-yl)ethenyl]benzyl]-2,3-dihydroindol-7-yl]ethyl]-1H-tetrazole], the Kb was 2.34 nM in assay [2] and 28.8 nM in assay [3]. Also, the “GPLM binding (pKi)” value in assay [1] came out at 8.3.

On to `C(=C\c1ccc2ccccc2n1)/c1cccc(CN2CCc3cccc(CCc4nnn[nH]4)c32)c1` [Example 9, 5-[2-[1-[3-[2-E-(Quinolin-2-yl)ethenyl]benzyl]-2,3-dihydroindol-7-yl]ethyl]-1H-tetrazole], for which, in assay [2], the Kb was 2.51 nM. Moreover, the “GPLM binding (pKi)” value in assay [1] turned out to be 7.8.

`Clc1ccc2ccc(COc3cccc(CN4CCc5cccc(CCc6nnn[nH]6)c54)c3)nc2c1` [Example 5, 5-[2-[1-[3-(7-Chloroquinolin-2-ylmethoxy)benzyl]-2,3-dihydroindol-7-yl]-ethyl]-1H-tetrazole]: the Kb in assay [2] was 3.89 nM; in assay [3] it was 8.32 nM. In addition, in assay [1], the “GPLM binding (pKi)” value worked out at 8.0.
